For 32 compounds, Activity, IC50 and inhibition results are on record in ChEMBL document CHEMBL4190238, “Discovery of potent IDO1 inhibitors derived from tryptophan using scaffold-hopping and structure-based design approaches” (Eur J Med Chem, 2017).

Structures are written as SMILES. Calls of active or inactive are those of the source. The calls are words filed in the database; no cut-off is given here.

For data set [1], the system named is HeLa. The data set is described as follows: Cytotoxicity against human HeLa cells assessed as reduction in cell viability at 10 to 30 uM after 24 hrs by MTT assay. In kind it is cell-based.
Data set [2] addresses T1, Indoleamine 2,3-dioxygenase 1 (Homo sapiens, UniProt P14902). Kind of data set: Inhibition of IFNgamma-induced IDO1 in human HeLa cells using L-tryptophan as substrate after 24 hrs. In kind it is cell-based.
Target sequence in this assay (P14902 whole entry): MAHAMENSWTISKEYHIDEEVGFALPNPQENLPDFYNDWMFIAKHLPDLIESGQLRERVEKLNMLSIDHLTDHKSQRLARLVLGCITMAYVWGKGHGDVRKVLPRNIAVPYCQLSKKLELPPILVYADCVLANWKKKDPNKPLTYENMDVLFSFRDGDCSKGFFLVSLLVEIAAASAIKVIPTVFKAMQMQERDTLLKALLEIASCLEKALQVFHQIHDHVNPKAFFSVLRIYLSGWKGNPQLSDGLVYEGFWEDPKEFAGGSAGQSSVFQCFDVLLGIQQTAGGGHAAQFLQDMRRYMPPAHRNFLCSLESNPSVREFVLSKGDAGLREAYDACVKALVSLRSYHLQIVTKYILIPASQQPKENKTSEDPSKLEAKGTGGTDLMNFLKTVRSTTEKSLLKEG
Data set [3] deals with HeLa. Kind of data set: Inhibition of IFNgamma-induced IDO1 protein expression in human HeLa cells at IDO1 inhibitory IC50 after 24 hrs by Western blot method. In kind it is functional, cell-based.
In data set [4] the target is Indoleamine 2,3-dioxygenase 1 (Mus musculus) (UniProt P28776). The data set is described as follows: Inhibition of IDO1 in mouse B16F1 cells co-cultured with Balb/c mouse T-cells assessed as reversal of IDO1-mediated suppression of T-cell proliferation at 18 uM after 48 hrs by MTT assay. It counts as cell-based. (Formazan colour is commonly taken as a measure of viable cells.)

The target is the same in data set [5]. The data set is described as follows: Inhibition of IDO1 in mouse B16F1 cells co-cultured with Balb/c mouse T-cells assessed as decrease in differentiation of Treg cells by measuring CD4+/CD25+/FOXP3 cells at 18 uM by FITC/APC/PE staining based flow cytometry (reference value: 11.7%). In kind it is cell-based. More on the design: scale not given: the % may be the effect or the level left. On the technique in general: In flow cytometry, cells or beads pass a laser one at a time.

For data set [6], the target named is T1, Indoleamine 2,3-dioxygenase 1. Kind of data set: Binding affinity to recombinant human IDO1 assessed as interaction with ferrous ion in enzyme active site by measuring absorbance maxima for ferrous heme at 2 mM by UV-Visible spectral analysis (reference value: 424 nanometer).
Target sequence in this assay (P14902 whole entry, looked up): as the sequence (P14902 whole entry) above
In data set [7] the target is Indoleamine 2,3-dioxygenase 1 (Mus musculus) (UniProt P28776). The data set is described as follows: Inhibition of IDO1 in mouse B16F1 cells co-cultured with Balb/c mouse T-cells assessed as increase in IFN-gamma level at 18 uM after 48 hrs by ELISA. In kind it is cell-based.
Data set [8] has the same target. Kind of data set: Inhibition of IDO1 in mouse B16F1 cells co-cultured with Balb/c mouse T-cells assessed as reversal of IDO1-mediated suppression of T-cell proliferation at 30 uM after 48 hrs by MTT assay. It counts as cell-based.
Data set [9] has the same target. The data set is described as follows: Inhibition of IDO1 in mouse B16F1 cells co-cultured with Balb/c mouse T-cells assessed as decrease in differentiation of Treg cells by measuring CD4+/CD25+/FOXP3 cells at 30 uM by FITC/APC/PE staining based flow cytometry (reference value: 11.7%). Further details: scale not given: the % may be the effect or the level left. In kind it is cell-based.

The target is the same in data set [10]. The data set is described as follows: Inhibition of IDO1 in mouse B16F1 cells co-cultured with Balb/c mouse T-cells assessed as increase in IFN-gamma level at 30 uM after 48 hrs by ELISA. In kind it is cell-based. (In general: In an ELISA, binding on a coated surface is turned into a signal by an enzyme label.)
For data set [11] the target is unchanged. The data set is described as follows: Inhibition of IDO1 in mouse B16F1 cells co-cultured with Balb/c mouse T-cells assessed as increase in IFN-gamma level at 1.5 uM after 48 hrs by ELISA. It counts as cell-based.
Data set [12] has the same target. The data set is described as follows: Inhibition of IDO1 in mouse B16F1 cells co-cultured with Balb/c mouse T-cells assessed as reversal of IDO1-mediated suppression of T-cell proliferation at 1.5 uM after 48 hrs by MTT assay. It counts as cell-based.

Chain of Indoleamine 2,3-dioxygenase 1 (Mus musculus) (P28776 whole entry, looked up): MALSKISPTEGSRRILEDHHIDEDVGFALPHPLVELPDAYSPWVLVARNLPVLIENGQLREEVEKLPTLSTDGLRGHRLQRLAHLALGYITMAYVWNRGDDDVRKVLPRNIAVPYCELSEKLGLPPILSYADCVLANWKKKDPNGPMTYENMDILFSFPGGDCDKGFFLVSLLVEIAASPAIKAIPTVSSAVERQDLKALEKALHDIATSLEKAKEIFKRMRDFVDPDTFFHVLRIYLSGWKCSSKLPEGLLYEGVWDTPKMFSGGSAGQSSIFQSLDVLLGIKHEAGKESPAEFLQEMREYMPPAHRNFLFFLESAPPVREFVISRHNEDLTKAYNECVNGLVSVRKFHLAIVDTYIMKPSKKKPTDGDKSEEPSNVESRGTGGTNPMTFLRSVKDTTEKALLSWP

With `O=c1oc2ccccc2n1Cc1cccc(F)c1`, in the data set with HeLa [1], the Activity result is on record as “Non-Toxic”. Inhibition in data set [2] was half-maximal at 30.8 µM (IC50).

Consider `O=C(Cn1c(=O)oc2ccccc21)c1ccc(F)cc1`, for which the Activity result with HeLa [1] is recorded as “Non-Toxic”. For the same compound, inhibition in data set [2] was half-maximal at 53.1 µM (IC50).

As to `O=C(Cn1c(=O)oc2ccc(Cl)cc21)c1ccc(F)cc1`, the Activity entry in the data set with HeLa [1] was “Non-Toxic”. Moreover, the IC50 – broadly, the concentration that inhibits the measured activity by half – in data set [2] worked out at 20.7 µM.

For the compound `O=c1oc2ccc(Cl)cc2n1Cc1ccc(Cl)cc1`, in the data set with HeLa [3], the inhibition (commonly the percentage by which the read-out fell short of the control) is “inactive”. For the same compound, the values for the Activity result (with HeLa [1]; in data set [5]; in data set [6]) were “Non-Toxic”, 8.7% and 418 nm, respectively. Moreover, in [4], the inhibition amounted to 52%. The compound also showed a concentration for half-maximal inhibition (IC50) in data set [2] of 6.08 µM. In addition, the inhibition result in [7] was “Active”.

As to `COc1ccc(CNC(=O)n2c(=O)oc3ccccc32)cc1`, the Activity entry with HeLa [1] was “Non-Toxic”. In data set [2], this compound came in with a half-maximal inhibitory concentration (IC50) of 31.8 µM.

As for `COc1cccc(CNC(=O)n2c(=O)oc3ccc(Cl)cc32)c1`, in the data set with HeLa [1], the Activity result was “Non-Toxic”. This compound also yielded an IC50 in data set [2] of 14.6 µM.

On to `O=c1oc2ccc(Cl)cc2n1CC(O)c1ccc(Cl)cc1` (stereo not drawn), for which, in the data set with HeLa [1], the Activity result is given as “Non-Toxic”. The compound also returned an IC50 in [2] of 62.7 µM.

For `O=c1oc2ccc(Cl)cc2n1CCc1ccccc1`, in the data set on HeLa [1], the Activity result is reported as “Non-Toxic”. This compound also came in with an IC50 in data set [2] of 17.9 µM.

Consider `O=C(Cn1c(=O)oc2ccccc21)c1ccc(Cl)cc1`, for which the Activity entry with HeLa [1] is “Non-Toxic”. In [2], this compound had a concentration for half-maximal inhibition (IC50) of 38.6 µM.

As to `O=C(Cc1ccc(F)cc1)n1c(=O)oc2ccccc21`, in the data set on HeLa [1], the Activity result is listed as “Non-Toxic”. Further, the IC50 in [2] was more than 100 µM.

With `O=C(Cc1ccc(F)cc1)n1c(=O)oc2ccc(Cl)cc21`, in the data set with HeLa [3], the inhibition entry is “inactive”. Also, the Activity entry in the data set with HeLa [1] was “Non-Toxic”; in [5], 7.1%. Also, the inhibition result in data set [4] and in data set [7] was “Active” each time. In data set [2], this compound came in with a half-inhibitory concentration (IC50) of 6.4 µM.

As to `O=C(Cn1c(=O)oc2ccc(Cl)cc21)c1ccc(Cl)cc1`, in the data set with HeLa [1], the Activity entry is on record as “Non-Toxic”. Further, the IC50 in data set [2] is 24.9 µM.

As for `O=c1oc2ccc(Cl)cc2n1Cc1cccc(F)c1`, in the data set with HeLa [3], the inhibition entry is “inactive”. The inhibition result in data set [8] and in data set [10] was “Active” each time. Moreover, the figures for the Activity entry (in the data set with HeLa [1]; in data set [6]; in data set [9]) were “Non-Toxic”, 418 nm and 6%, respectively. Besides, in [2], 9.75 µM corresponded to half-maximal inhibition (IC50).

Regarding `O=c1oc2ccc(F)cc2n1Cc1cccc(F)c1`, the Activity entry in the data set with HeLa [1] was “Non-Toxic”. For the same compound, in data set [2], the IC50 turned out to be 28.5 µM.

For the compound `O=C(Cn1c(=O)oc2ccc(Cl)cc21)c1cccc(Cl)c1`, the Activity entry in the data set with HeLa [1] is reported as “Non-Toxic”. The IC50 in data set [2] worked out at 76.6 µM.

In the case of `OC(CC1c2ccccc2-c2cncn21)C1CCCCC1` (racemic), the inhibition result in data set [11] and in data set [12] was “Active” throughout.

As for `COc1ccc(NC(=O)n2c(=O)oc3ccc(Cl)cc32)cc1`, the Activity entry with HeLa [1] was “Non-Toxic”. The compound also registered an IC50 in data set [2] of more than 100 µM.

Regarding `O=c1oc2ccc([N+](=O)[O-])cc2n1Cc1cccc(F)c1`, the Activity entry in the data set with HeLa [1] was “Non-Toxic”. Also, half-maximal inhibition in data set [2] (IC50) required 99.8 µM.

Consider `O=c1oc2ccccc2n1CC(O)c1cccc(Cl)c1` (stereo not drawn), for which the Activity result with HeLa [1] was “Non-Toxic”. In data set [2], this compound yielded an IC50 of 80.6 µM.

For the compound `O=c1oc2ccccc2n1CC(O)c1ccc(Cl)cc1` (stereo not drawn), the Activity result with HeLa [1] was “Non-Toxic”. Also, in [2], the midpoint of inhibition, the IC50, lay at 50.8 µM.

Regarding `O=C(c1ccccc1)n1c(=O)oc2ccccc21`, the Activity result in the data set on HeLa [1] is recorded as “Non-Toxic”. Also, it took 90.5 µM to reach half-maximal inhibition in [2] (IC50).

For the compound `O=C(Cn1c(=O)oc2ccccc21)c1cccc(Cl)c1`, the Activity entry with HeLa [1] is reported as “Non-Toxic”. Further, the IC50 in data set [2] was 49.3 µM.

Consider `O=c1oc2ccccc2n1Cc1ccc(Cl)cc1`, for which the Activity result in the data set on HeLa [1] is on record as “Non-Toxic”. Further, 35 µM corresponded to half-maximal inhibition in data set [2] (IC50).

Turning to `O=c1oc2ccc(Cl)cc2n1CC(O)c1ccc(F)cc1` (stereo not drawn), the Activity entry with HeLa [1] is on record as “Non-Toxic”. In data set [2], this compound showed a concentration for half-maximal inhibition (IC50) of 10.2 µM.

On to `O=c1oc2ccc(Cl)cc2n1CC(O)c1cccc(Cl)c1` (stereo not drawn), for which the Activity entry in the data set on HeLa [1] is on record as “Non-Toxic”. Also, in [2], 60.9 µM corresponded to half-maximal inhibition (IC50).

Regarding `O=c1oc2ccccc2n1CC(O)c1ccc(F)cc1` (stereo not drawn), in the data set with HeLa [1], the Activity entry was “Non-Toxic”. In data set [2], half-maximal inhibition (IC50) was put at 49.3 µM.

As for `Nc1ccc2oc(=O)n(Cc3cccc(F)c3)c2c1`, the Activity result with HeLa [1] is “Non-Toxic”. The compound further returned an IC50 in data set [2] of more than 100 µM.

`O=c1[nH]c2ccccc2n1CC(O)c1ccc(F)cc1` (stereo not drawn): in the data set with HeLa [1], the Activity result is reported as “Non-Toxic”. Moreover, in data set [2], half-maximal inhibition (IC50) required 99.9 µM.

As for `Nc1nc2ccccc2n1C(=O)Cc1ccc(F)cc1`, the Activity result with HeLa [1] was “Non-Toxic”. Further, in data set [2], the IC50 stood at 22.7 µM.

As to `O=c1oc2ccccc2n1CCc1ccccc1`, the Activity result with HeLa [1] is “Non-Toxic”. In data set [2], the IC50 is more than 100 µM.

With `O=c1oc2ccc(F)cc2n1Cc1ccc(Cl)cc1`, the Activity result in the data set on HeLa [1] is given as “Non-Toxic”. The same compound displayed an IC50 in data set [2] of 80.8 µM.

As to `O=c1oc2ccc([N+](=O)[O-])cc2n1Cc1ccc(Cl)cc1`, the Activity result in the data set with HeLa [1] is “Non-Toxic”. The compound also showed an IC50 in data set [2] of 99.3 µM.
